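All cell lines were grown in 96-well plates and treated with compound for 48 hours. TGI denotes the concentration required for complete inhibition of growth.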
Experiments:
Test in all cases: inhibition of tumour cell growth, NCI panel, 48 h
COLO 205 colon = test system: COLO 205 colon
MDA-N = test system: MDA-N
U251 CNS = test system: U251 CNS
SR leukemia = test system: SR leukemia
RXF 393 renal = test system: RXF 393 renal
CCRF-CEM leukemia = test system: CCRF-CEM leukemia
UACC-62 melanoma = test system: UACC-62 melanoma
HL-60(TB) leukemia = test system: HL-60(TB) leukemia
TK-10 renal = test system: TK-10 renal
HOP-92 NSCLC = test system: HOP-92 NSCLC
PC-3 prostate = test system: PC-3 prostate
OVCAR-4 ovarian = test system: OVCAR-4 ovarian
ACHN renal = test system: ACHN renal
SNB-19 CNS = test system: SNB-19 CNS
NCI/ADR-RES ovarian = test system: NCI/ADR-RES ovarian
HCT-116 colon = test system: HCT-116 colon
SK-MEL-5 melanoma = test system: SK-MEL-5 melanoma
SF-295 CNS = test system: SF-295 CNS
A498 renal = test system: A498 renal
SK-OV-3 ovarian = test system: SK-OV-3 ovarian
MOLT-4 leukemia = test system: MOLT-4 leukemia
OVCAR-5 ovarian = test system: OVCAR-5 ovarian
MDA-MB-231 breast = test system: MDA-MB-231 breast
OVCAR-3 ovarian = test system: OVCAR-3 ovarian
RPMI-8226 leukemia = test system: RPMI-8226 leukemia
CAKI-1 renal = test system: CAKI-1 renal
NCI-H460 lung = test system: NCI-H460 lung
DU-145 prostate = test system: DU-145 prostate
HCC-2998 colon = test system: HCC-2998 colon
HCT-15 colon = test system: HCT-15 colon
NCI-H226 lung = test system: NCI-H226 lung
HOP-62 NSCLC = test system: HOP-62 NSCLC
EKVX NSCLC = test system: EKVX NSCLC
SN12C renal = test system: SN12C renal
IGROV1 ovarian = test system: IGROV1 ovarian
UO-31 renal = test system: UO-31 renal
M14 melanoma = test system: M14 melanoma
SK-MEL-2 melanoma = test system: SK-MEL-2 melanoma
SNB-75 CNS = test system: SNB-75 CNS
KM12 colon = test system: KM12 colon
MCF7 breast = test system: MCF7 breast
MALME-3M melanoma = test system: MALME-3M melanoma
UACC-257 melanoma = test system: UACC-257 melanoma
SK-MEL-28 melanoma = test system: SK-MEL-28 melanoma
A549 NSCLC = test system: A549 NSCLC
786-0 renal = test system: 786-0 renal
OVCAR-8 ovarian = test system: OVCAR-8 ovarian
SF-268 CNS = test system: SF-268 CNS
T-47D breast = test system: T-47D breast
SF-539 CNS = test system: SF-539 CNS
LOX IMVI melanoma = test system: LOX IMVI melanoma
NCI-H23 lung = test system: NCI-H23 lung
K-562 leukemia = test system: K-562 leukemia
BT-549 breast = test system: BT-549 breast
NCI-H522 lung = test system: NCI-H522 lung
SW-620 colon = test system: SW-620 colon
MDA-MB-435 = test system: MDA-MB-435
HT29 colon = test system: HT29 colon

Molecule `C=Cc1ccccc1C1C(C(=O)OCC)=C(C)N=C2OC(C(=O)OC)C(=O)N21` (stereo unspecified) has a TGI (COLO 205 colon) greater than 100 µM, a TGI (MDA-N) greater than 100 µM and a TGI (U251 CNS) greater than 100 µM. The TGI (SR leukemia) was greater than 100 µM, the TGI (RXF 393 renal) was greater than 100 µM and the TGI (CCRF-CEM leukemia) was greater than 100 µM. It also gave a TGI (UACC-62 melanoma) greater than 100 µM, a TGI (HL-60(TB) leukemia) greater than 100 µM and a TGI (TK-10 renal) greater than 100 µM. The TGI (HOP-92 NSCLC) was greater than 100 µM, the TGI (PC-3 prostate) was greater than 100 µM and the TGI (OVCAR-4 ovarian) was greater than 100 µM. For the same molecule, the TGI (ACHN renal) was greater than 100 µM, the TGI (SNB-19 CNS) was greater than 100 µM and the TGI (NCI/ADR-RES ovarian) was greater than 100 µM. For the same molecule, the TGI (HCT-116 colon) was greater than 100 µM, the TGI (SK-MEL-5 melanoma) was greater than 100 µM and the TGI (SF-295 CNS) was greater than 100 µM. It also gave a TGI (A498 renal) greater than 100 µM, a TGI (SK-OV-3 ovarian) greater than 100 µM and a TGI (MOLT-4 leukemia) greater than 100 µM. For the same molecule, the TGI (OVCAR-5 ovarian) was greater than 100 µM, the TGI (MDA-MB-231 breast) was greater than 100 µM and the TGI (OVCAR-3 ovarian) was greater than 100 µM. It also gave a TGI (RPMI-8226 leukemia) greater than 100 µM, a TGI (CAKI-1 renal) greater than 100 µM and a TGI (NCI-H460 lung) greater than 100 µM. It also gave a TGI (DU-145 prostate) greater than 100 µM, a TGI (HCC-2998 colon) greater than 100 µM and a TGI (HCT-15 colon) greater than 100 µM. It also gave a TGI (NCI-H226 lung) greater than 100 µM, a TGI (HOP-62 NSCLC) greater than 100 µM and a TGI (EKVX NSCLC) greater than 100 µM. For the same molecule, the TGI (SN12C renal) was greater than 100 µM, the TGI (IGROV1 ovarian) was greater than 100 µM and the TGI (UO-31 renal) was greater than 100 µM. For the same molecule, the TGI (M14 melanoma) was greater than 100 µM, the TGI (SK-MEL-2 melanoma) was greater than 100 µM and the TGI (SNB-75 CNS) was greater than 100 µM. For the same molecule, the TGI (KM12 colon) was greater than 100 µM, the TGI (MCF7 breast) was greater than 100 µM and the TGI (MALME-3M melanoma) was greater than 100 µM. For the same molecule, the TGI (UACC-257 melanoma) was greater than 100 µM, the TGI (SK-MEL-28 melanoma) was greater than 100 µM and the TGI (A549 NSCLC) was greater than 100 µM. For the same molecule, the TGI (786-0 renal) was greater than 100 µM, the TGI (OVCAR-8 ovarian) was greater than 100 µM and the TGI (SF-268 CNS) was greater than 100 µM. For the same molecule, the TGI (T-47D breast) was greater than 100 µM, the TGI (SF-539 CNS) was greater than 100 µM and the TGI (LOX IMVI melanoma) was greater than 100 µM. It also gave a TGI (NCI-H23 lung) greater than 100 µM, a TGI (K-562 leukemia) greater than 100 µM and a TGI (BT-549 breast) greater than 100 µM. For the same molecule, the TGI (NCI-H522 lung) was greater than 100 µM, the TGI (SW-620 colon) was greater than 100 µM and the TGI (MDA-MB-435) was greater than 100 µM. The TGI (HT29 colon) was greater than 100 µM.

`C=C(C)C12OC3(c4ccccc4)OC1C1C4OC4(CO)C(O)C4(O)C(=O)C(C)=CC4C1(O3)C(C)C2OC(=O)/C=C/C=C/c1ccccc1` (stereo unspecified) gave a TGI (COLO 205 colon) of 0.0416 µM, a TGI (MDA-N) of 0.817 µM and a TGI (U251 CNS) of 0.894 µM. For the same molecule, the TGI (SR leukemia) was 0.385 µM, the TGI (RXF 393 renal) was 1.07 µM and the TGI (CCRF-CEM leukemia) was 1.5 µM. It also gave a TGI (UACC-62 melanoma) of 1.29 µM, a TGI (HL-60(TB) leukemia) of 0.107 µM and a TGI (HOP-92 NSCLC) of 0.836 µM. The TGI (PC-3 prostate) was 0.62 µM, the TGI (OVCAR-4 ovarian) was 0.697 µM and the TGI (ACHN renal) was 0.557 µM. The TGI (SNB-19 CNS) was 5 µM, the TGI (NCI/ADR-RES ovarian) was 1.38 µM and the TGI (HCT-116 colon) was 0.887 µM. The TGI (SK-MEL-5 melanoma) was 0.989 µM, the TGI (SF-295 CNS) was 1.09 µM and the TGI (A498 renal) was 0.183 µM. It also gave a TGI (SK-OV-3 ovarian) of 4.73 µM, a TGI (MOLT-4 leukemia) of 2.34 µM and a TGI (OVCAR-5 ovarian) of 0.597 µM. The TGI (MDA-MB-231 breast) was 0.264 µM, the TGI (OVCAR-3 ovarian) was 0.316 µM and the TGI (RPMI-8226 leukemia) was 0.519 µM. It also gave a TGI (CAKI-1 renal) of 1.52 µM, a TGI (NCI-H460 lung) of 3.04 µM and a TGI (DU-145 prostate) of 1.47 µM. The TGI (HCC-2998 colon) was 0.246 µM, the TGI (HCT-15 colon) was 1.98 µM and the TGI (NCI-H226 lung) was 1.06 µM. The TGI (HOP-62 NSCLC) was 1.65 µM, the TGI (EKVX NSCLC) was 1.13 µM and the TGI (SN12C renal) was 0.37 µM. It also gave a TGI (IGROV1 ovarian) of 2.4 µM, a TGI (UO-31 renal) of 0.576 µM and a TGI (M14 melanoma) of 0.409 µM. For the same molecule, the TGI (SK-MEL-2 melanoma) was 1.89 µM, the TGI (SNB-75 CNS) was 1.15 µM and the TGI (KM12 colon) was 0.862 µM. The TGI (MCF7 breast) was 0.911 µM, the TGI (MALME-3M melanoma) was 1.24 µM and the TGI (UACC-257 melanoma) was 1.94 µM. The TGI (SK-MEL-28 melanoma) was 1.55 µM, the TGI (A549 NSCLC) was 2.39 µM and the TGI (786-0 renal) was 0.699 µM. The TGI (OVCAR-8 ovarian) was 1.15 µM, the TGI (SF-268 CNS) was 1.25 µM and the TGI (T-47D breast) was 4.84 µM. For the same molecule, the TGI (SF-539 CNS) was 1.52 µM, the TGI (LOX IMVI melanoma) was 0.411 µM and the TGI (NCI-H23 lung) was 1.4 µM. It also gave a TGI (K-562 leukemia) of 2.35 µM, a TGI (BT-549 breast) of 0.97 µM and a TGI (NCI-H522 lung) of 1.1 µM. It also gave a TGI (MDA-MB-435) of 0.742 µM and a TGI (HT29 colon) of 0.22 µM.

Work on `C/C1=C\CC[C@@]2(C)O[C@@H]2C[C@@H]2[C@H](C/C(C)=C/CC1)OC(=O)C21CC1` yielded a TGI (COLO 205 colon) greater than 100 µM, a TGI (MDA-N) greater than 100 µM and a TGI (U251 CNS) greater than 100 µM. It also gave a TGI (SR leukemia) of 48 µM, a TGI (RXF 393 renal) greater than 100 µM and a TGI (CCRF-CEM leukemia) of 65.8 µM. The TGI (UACC-62 melanoma) was greater than 100 µM, the TGI (HL-60(TB) leukemia) was 93.7 µM and the TGI (TK-10 renal) was greater than 100 µM. The TGI (PC-3 prostate) was greater than 100 µM, the TGI (ACHN renal) was greater than 100 µM and the TGI (SNB-19 CNS) was greater than 100 µM. It also gave a TGI (NCI/ADR-RES ovarian) greater than 100 µM, a TGI (HCT-116 colon) greater than 100 µM and a TGI (SK-MEL-5 melanoma) greater than 100 µM. The TGI (SF-295 CNS) was greater than 100 µM, the TGI (A498 renal) was greater than 100 µM and the TGI (SK-OV-3 ovarian) was greater than 100 µM. For the same molecule, the TGI (MOLT-4 leukemia) was 61.2 µM, the TGI (OVCAR-5 ovarian) was greater than 100 µM and the TGI (MDA-MB-231 breast) was greater than 100 µM. For the same molecule, the TGI (OVCAR-3 ovarian) was greater than 100 µM, the TGI (RPMI-8226 leukemia) was 46.3 µM and the TGI (CAKI-1 renal) was greater than 100 µM. It also gave a TGI (NCI-H460 lung) greater than 100 µM, a TGI (DU-145 prostate) greater than 100 µM and a TGI (HCC-2998 colon) greater than 100 µM. It also gave a TGI (HCT-15 colon) greater than 100 µM, a TGI (HOP-62 NSCLC) greater than 100 µM and a TGI (EKVX NSCLC) greater than 100 µM. It also gave a TGI (SN12C renal) greater than 100 µM, a TGI (IGROV1 ovarian) of 72.7 µM and a TGI (UO-31 renal) greater than 100 µM. It also gave a TGI (M14 melanoma) greater than 100 µM, a TGI (SK-MEL-2 melanoma) greater than 100 µM and a TGI (SNB-75 CNS) greater than 100 µM. It also gave a TGI (KM12 colon) greater than 100 µM, a TGI (MCF7 breast) greater than 100 µM and a TGI (MALME-3M melanoma) greater than 100 µM. For the same molecule, the TGI (UACC-257 melanoma) was greater than 100 µM, the TGI (SK-MEL-28 melanoma) was greater than 100 µM and the TGI (A549 NSCLC) was greater than 100 µM. It also gave a TGI (786-0 renal) greater than 100 µM, a TGI (OVCAR-8 ovarian) greater than 100 µM and a TGI (SF-268 CNS) greater than 100 µM. For the same molecule, the TGI (T-47D breast) was greater than 100 µM, the TGI (SF-539 CNS) was greater than 100 µM and the TGI (K-562 leukemia) was 66.2 µM. The TGI (BT-549 breast) was greater than 100 µM, the TGI (SW-620 colon) was greater than 100 µM and the TGI (MDA-MB-435) was greater than 100 µM. The TGI (HT29 colon) was greater than 100 µM.

From PubChem BioAssay (NCI)
